In article PMC11638278, “Ascorbate: a forgotten component in the cytotoxicity of Cu(II) ATCUN peptide complexes” (Journal of Biological Inorganic Chemistry, 2024):

Tested on: AGS cells (gastric adenocarcinoma)
Experiment: MTT cell viability assay on AGS cells
Assay type: cell-based
Settings: AscH− 100 µM alone (negative control), 48 h
Procedure: The complexes 1–3, Cu-GGH, CuCl2 and the peptides a-c, GGH alone were tested on three different cancer cell lines towards their cytotoxic activity: HeLa cells (cervical adenocarcinoma), AGS and NCI-N87 cells (both gastric adenocarcinoma). The cells were grown and treated with compounds in RPMI Medium 1640 (1×) supplemented with 10% fetal calf serum in a humidified incubator with 5% CO2 at 37 °C. MTT cell viability assays were carried out at two concentrations (100 and 250 µM) at least in duplicate (in AGS cells additionally in two independent experiments). The Annexin V-FITC apoptosis assay was carried out at a compound concentration of 500 µM in duplicate in two independent experiments.
For the MTT cell viability assay (Sigma Aldrich), cells were seeded at 10 000 (HeLa and AGS) and 20 000 (NCI-N87) cells/well in 96-well plates and left to settle for 24 h. […] Quantification of the formazan was ensured by a Spectramax M5 (Molecular Devices) microplate reader at an absorbance of 470 nm to determine the percentage of cell-growth inhibition of each sample (with compound) relative to a negative control (no compound). […]

O=C1O[C@H]([C@@H](O)CO)C(O)=C1O [AscH^−, sodium ascorbate]
cytotoxicity of the additive alone: does not show significant cytotoxicity
